Like-named read-outs stand apart in the source and are kept apart here.
What was measured:
Type in all cases: cell-based
hGIPR = target: T1, hGIPR (Homo sapiens, UniProt P48546); assay: Functional cAMP formation (HTRF) in HEK-293 clonal cells expressing hGIPR, 0.1% bovine casein, without or with 1.0% human serum albumin; conditions: for EC50: geometric mean
T1 construct: expressed in transfected cells
T1 sequence (P48546 22-466): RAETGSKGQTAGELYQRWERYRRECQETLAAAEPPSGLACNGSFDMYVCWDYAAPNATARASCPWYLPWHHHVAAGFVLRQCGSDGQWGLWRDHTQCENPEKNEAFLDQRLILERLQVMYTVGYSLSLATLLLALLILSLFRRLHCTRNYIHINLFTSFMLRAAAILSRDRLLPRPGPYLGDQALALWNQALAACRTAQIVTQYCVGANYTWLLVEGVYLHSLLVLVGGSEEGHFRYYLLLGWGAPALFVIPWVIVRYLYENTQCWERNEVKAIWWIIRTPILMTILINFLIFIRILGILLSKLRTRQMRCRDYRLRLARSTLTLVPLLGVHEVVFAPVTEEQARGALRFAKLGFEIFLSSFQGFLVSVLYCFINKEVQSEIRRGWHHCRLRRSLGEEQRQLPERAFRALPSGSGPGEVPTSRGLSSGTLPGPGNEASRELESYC
How it was run: (§1)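 Cells were stimulated with peptide for 30 min at 37° C, then intracellular cAMP was measured by competitive HTRF (665/620 nm ratio) and converted to nM using a cAMP standard curve. Relative EC50 and Emax came from four-parameter logistic fits of percent maximal response against peptide concentration.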

hGCGR = target: T2, hGCGR (Homo sapiens, UniProt P47871); assay: Functional cAMP formation (HTRF) in HEK-293 clonal cells expressing hGCGR, 0.1% bovine casein, without or with 1.0% human serum albumin; conditions: geometric mean
T2 construct: expressed in transfected cells
How it was run: as §1

hGLP-1R = hGLP-1R (Homo sapiens, UniProt P43220); assay: Functional cAMP formation (HTRF) in HEK-293 clonal cells expressing hGLP-1R, 0.1% bovine casein, without or with 1.0% human serum albumin; parameters: expressed in transfected cells; conditions: for EC50: geometric mean
How it was run: as §1

Chain of hGLP-1R (P43220 24-463): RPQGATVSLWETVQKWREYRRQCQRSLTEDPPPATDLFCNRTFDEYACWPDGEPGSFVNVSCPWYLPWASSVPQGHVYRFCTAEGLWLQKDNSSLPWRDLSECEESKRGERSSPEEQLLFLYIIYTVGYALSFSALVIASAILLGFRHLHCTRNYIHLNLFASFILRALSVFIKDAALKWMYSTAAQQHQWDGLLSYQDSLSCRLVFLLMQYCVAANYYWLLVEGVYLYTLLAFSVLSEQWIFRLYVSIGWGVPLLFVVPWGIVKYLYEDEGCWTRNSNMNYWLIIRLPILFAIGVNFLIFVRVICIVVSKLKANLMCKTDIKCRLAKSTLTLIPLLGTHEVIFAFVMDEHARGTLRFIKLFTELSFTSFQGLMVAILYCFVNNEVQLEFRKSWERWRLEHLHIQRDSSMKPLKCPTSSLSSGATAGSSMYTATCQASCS
T2 sequence (P47871 26-477): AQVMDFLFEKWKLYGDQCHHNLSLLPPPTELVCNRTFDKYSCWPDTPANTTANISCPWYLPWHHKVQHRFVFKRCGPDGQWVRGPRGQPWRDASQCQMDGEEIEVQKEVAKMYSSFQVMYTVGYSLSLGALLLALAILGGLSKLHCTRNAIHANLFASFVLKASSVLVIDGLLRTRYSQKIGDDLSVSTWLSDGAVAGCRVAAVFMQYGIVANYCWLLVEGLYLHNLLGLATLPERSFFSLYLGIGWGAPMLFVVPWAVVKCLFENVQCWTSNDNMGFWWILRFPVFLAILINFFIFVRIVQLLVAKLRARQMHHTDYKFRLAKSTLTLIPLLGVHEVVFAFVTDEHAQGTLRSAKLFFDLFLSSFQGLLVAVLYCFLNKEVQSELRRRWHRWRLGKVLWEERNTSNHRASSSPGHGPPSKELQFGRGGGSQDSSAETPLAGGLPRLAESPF

| SMILES | Emax (hGIPR; HEK293, read-out: hGIPR Emax, % ± SEM, percent of maximal response to GIP(1-42)NH2, 37° C., 0.1% bovine casein, arithmetic mean) [%] | EC50 (hGIPR; hGIPR EC50, nM (SEM, n), cAMP, incubated at 37° C., 0.1% bovine casein (no human serum albumin)) [nM] | EC50 (hGCGR; hGCGR EC50, nM (SEM, n), cAMP, incubated at 37° C., 0.1% bovine casein (no human serum albumin)) [nM] | EC50 (hGLP-1R; hGLP-1R EC50, nM (SEM, n), cAMP, incubated at 37° C., 0.1% bovine casein (no human serum albumin)) [nM] | EC50 (hGIPR; 0.1% bovine casein and 1.0% human serum albumin, 37° C., read-out: hGIPR EC50, nM (SEM, n)) [nM] | Emax (hGIPR; HEK293, 0.1% bovine casein and 1.0% human serum albumin, 37° C., percent of maximal response to GIP(1-42)NH2, read-out: hGIPR Emax, % ± SEM) [%] | Emax (hGIPR; HEK293, percent of maximal response to GIP(1-42)NH2, 37° C., 0.1% bovine casein, arithmetic mean, read-out: hGIPR Emax, % ± SEM) [%] | EC50 (hGIPR; cAMP, incubated at 37° C., 0.1% bovine casein (no human serum albumin), read-out: hGIPR EC50, nM (SEM, n)) [nM] | EC50 (hGCGR; 0.1% bovine casein and 1.0% human serum albumin, 37° C., read-out: hGCGR EC50, nM (SEM, n)) [nM] | EC50 (hGCGR; cAMP, incubated at 37° C., 0.1% bovine casein (no human serum albumin), read-out: hGCGR EC50, nM (SEM, n)) [nM] | EC50 (hGLP-1R; 0.1% bovine casein and 1.0% human serum albumin, 37° C., read-out: hGLP-1R EC50, nM (SEM, n)) [nM] | Emax (hGLP-1R; HEK293, 0.1% bovine casein and 1.0% human serum albumin, 37° C., percent of maximal response to GLP-1(7-36)NH2, read-out: hGLP-1R Emax, % ± SEM) [%] | EC50 (hGLP-1R; cAMP, incubated at 37° C., 0.1% bovine casein (no human serum albumin), read-out: hGLP-1R EC50, nM (SEM, n)) [nM] |
| --- | --- | --- | --- | --- | --- | --- | --- | --- | --- | --- | --- | --- | --- |
| CC[C@H](C)[C@H](NC(=O)[C@H](CC(C)C)NC(=O)[C@](C)(Cc1ccc(O)cc1)NC(=O)[C@H](CCCCNC(=O)COCCOCCNC(=O)COCCOCCNC(=O)CC[C@H](NC(=O)CCCc1ccc(C(C)(C)C)cc1)C(=O)O)NC(=O)[C@@H](NC(=O)[C@H](Cc1ccccc1)NC(=O)[C@H](CCC(=O)O)NC(=O)C(C)(C)NC(=O)[C@H](CCC(N)=O)NC(=O)[C@H](C)NC(=O)[C@H](CCCCNC(=O)COCCOCCNC(=O)COCCOCCNC(=O)CC[C@H](NC(=O)CCCc1ccc(C(C)(C)C)cc1)C(=O)O)NC(=O)[C@H](CCCN)NC(=O)[C@H](CC(=O)O)NC(=O)[C@H](CC(C)C)NC(=O)[C@](C)(CC(C)C)NC(=O)[C@@H](NC(=O)[C@H](CO)NC(=O)[C@H](Cc1ccncc1)NC(=O)[C@H](CC(=O)O)NC(=O)[C@H](CO)NC(=O)[C@@H](NC(=O)[C@](C)(Cc1ccccc1F)NC(=O)[C@@H](NC(=O)CNC(=O)[C@H](CCC(=O)O)NC(=O)C(C)(C)NC(=O)[C@@H](N)Cc1ccc(O)cc1)[C@@H](C)O)[C@@H](C)O)[C@@H](C)CC)[C@@H](C)CC)C(=O)N[C@@H](CCC(=O)O)C(=O)NCC(=O)NCC(=O)N1CCC[C@H]1C(=O)N[C@@H](CO)C(=O)N[C@@H](CO)C(=O)NCC(=O)N[C@@H](C)C(=O)N1CCC[C@H]1C(=O)N1CCC[C@H]1C(=O)N1CCC[C@H]1C(=O)N[C@@H](CO)C(N)=O [Example 132] | 98.3 ± 1.68 | 0.0208 | > 9950 | 0.182 |  |  |  |  |  |  |  |  |  |
| CC[C@H](C)[C@H](NC(=O)[C@H](CC(C)C)NC(=O)[C@](C)(Cc1ccc(O)cc1)NC(=O)[C@@H](CCC(=O)O)NC(=O)[C@@H](NC(=O)[C@H](Cc1ccccc1)NC(=O)[C@H](CCCCNC(=O)COCCOCCNC(=O)COCCOCCNC(=O)CC[C@H](NC(=O)CCCc1ccc(C(C)(C)C)cc1)C(=O)O)NC(=O)C(C)(C)NC(=O)[C@H](CCC(N)=O)NC(=O)[C@H](C)NC(=O)[C@H](CCCCNC(=O)COCCOCCNC(=O)COCCOCCNC(=O)CC[C@H](NC(=O)CCCc1ccc(C(C)(C)C)cc1)C(=O)O)NC(=O)[C@H](CCCN)NC(=O)[C@H](CC(=O)O)NC(=O)[C@H](CC(C)C)NC(=O)[C@](C)(CC(C)C)NC(=O)[C@@H](NC(=O)[C@H](CO)NC(=O)[C@H](Cc1ccncc1)NC(=O)[C@H](CC(=O)O)NC(=O)[C@H](CO)NC(=O)[C@@H](NC(=O)[C@](C)(Cc1ccccc1F)NC(=O)[C@@H](NC(=O)CNC(=O)[C@H](CCC(=O)O)NC(=O)C(C)(C)NC(=O)[C@@H](N)Cc1ccc(O)cc1)[C@@H](C)O)[C@@H](C)O)[C@@H](C)CC)[C@@H](C)CC)C(=O)N[C@@H](CCC(=O)O)C(=O)NCC(=O)NCC(=O)N1CCC[C@H]1C(=O)N[C@@H](CO)C(=O)N[C@@H](CO)C(=O)NCC(=O)N[C@@H](C)C(=O)N1CCC[C@H]1C(=O)N1CCC[C@H]1C(=O)N1CCC[C@H]1C(=O)N[C@@H](CO)C(N)=O [Example 131] |  |  |  |  | 0.0581 | 90.4 ± 1.62 | 96.4 ± 1.95 | 0.0156 | > 9950 | > 9950 | 1.04 | 112 ± 1.76 | 0.19 |

Source: US20230265151A1, “GIP/GLP1 CO-AGONIST COMPOUNDS” (priority 2020, published 2023)
